Earlier results, collected in patent US20100135984A1, “Anti-inflammatory compositions and methods” (Searete LLC, a limited liability corporation of the State …, priority 2008, published 2010).

Tests used:
[1] = mice
[2] = single agent, infused at 400 mg over one hour
Fyn = Fyn (Homo sapiens, UniProt P06241); conditions: at nanomolar concentrations
proteasome = conditions: cultured breast cancer cells; copper-bound

Fyn, sequence (P06241 whole entry, species assumed): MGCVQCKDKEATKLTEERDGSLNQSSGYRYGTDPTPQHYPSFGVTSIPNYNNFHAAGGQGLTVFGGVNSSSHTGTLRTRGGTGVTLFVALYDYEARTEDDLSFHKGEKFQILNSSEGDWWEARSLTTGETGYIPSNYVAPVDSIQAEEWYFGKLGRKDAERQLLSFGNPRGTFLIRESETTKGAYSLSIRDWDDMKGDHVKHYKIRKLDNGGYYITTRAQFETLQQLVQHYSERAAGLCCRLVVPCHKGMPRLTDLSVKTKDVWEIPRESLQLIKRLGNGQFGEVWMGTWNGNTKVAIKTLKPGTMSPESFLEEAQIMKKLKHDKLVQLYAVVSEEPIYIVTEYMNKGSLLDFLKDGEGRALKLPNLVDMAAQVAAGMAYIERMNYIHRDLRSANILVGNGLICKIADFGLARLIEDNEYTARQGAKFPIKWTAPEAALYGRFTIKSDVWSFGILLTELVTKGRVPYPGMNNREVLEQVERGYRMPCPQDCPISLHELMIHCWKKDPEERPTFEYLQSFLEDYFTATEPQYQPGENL

In the case of `CCN(CC)CCCC(C)Nc1ccnc2cc(Cl)ccc12` (stereo not drawn) [Chloroquine], the “inhibition of CpG-induced Src family kinase activation or its dependent cellular responses” value (Src family kinase) is listed as “does not inhibit”.

For `Cl.Cl.Nc1ccccc1Oc1ccc2c(N)nsc2c1` [Example M62812, 3-amino-6-(2-aminophenoxy)-1,2-benzisothiazole dihydrochloride], the “prevention of lethal septic shock” value [1] is given as “prevents lethal septic shock”.

In the case of `CCN(CC)CCCC(C)Nc1ccnc2cc(Cl)ccc12.O=P(O)(O)O.O=P(O)(O)O` (stereo not drawn) [chloroquine phosphate, 7-chloro-4-[[4-(diethylamino)-1-methylbutyl]amino]quinoline phosphate (1:2)], the tolerability of infusion [2] is listed as “without complication”.

For `Cc1nc(Nc2ncc(C(=O)Nc3c(C)cccc3Cl)s2)cc(N2CCN(CCO)CC2)n1.O` [dasatinib, N-(2-chloro-6-methylphenyl)-2-[[6-[4-(2-hydroxyethyl)-1-piperazinyl]-2-methyl-4-pyrimidinyl]amino]-5-thiazolecarboxamide, monohydrate], the “inhibition of Fyn” value (Fyn) is given as “inhibits”.

In the case of `CCN(CC)C(=S)SSC(=S)N(CC)CC` [disulfiram, 1-(diethylthiocarbamoyldisulfanyl)-N,N-diethyl-methanethioamide], the proteasomal activity (proteasome) is given as “inhibits proteasomal activity” and the “inhibition of aldehyde dehydrogenase” value (aldehyde dehydrogenase) is given as “inhibits aldehyde dehydrogenase without toxicity”.
